Where two headings read alike, the source gives them in different places. Starred links: 1 amine or outer side, 2 acyl side, 3 side chain; linkers in the order of their positions; H or OH if unused. Non-standard residues stand in square brackets, D forms with d. Residues, ends and D or L forms follow the SMILES beside them. Groups on a side chain read outwards from the residue. *: point of attachment. C18 diacid = O=C(O)CCCCCCCCCCCCCCCCC(=O)*; γGlu = O=C(O)[C@H](CCC(=O)[*:2])N[*:1]; AEEA = NCCOCCOCC(=O)O; Aib = CC(C)(N)C(=O)O
Columns and labels:
Assay type in all cases: cell-based
CRF1R receptor = target: T1, CRF1R receptor (Homo sapiens, UniProt P34998); assay: cAMP activity at anti-target CRF1R, CRF1R-overexpression CHO cell line (Example 9); conditions: CRF1R-overexpression CHO cell line; for EC50: 0% HSA; for Emax: read-out: Emax (%)
T1 construct: host or cells: CHO-K1 clone 2
T1 sequence (P34998 24-415): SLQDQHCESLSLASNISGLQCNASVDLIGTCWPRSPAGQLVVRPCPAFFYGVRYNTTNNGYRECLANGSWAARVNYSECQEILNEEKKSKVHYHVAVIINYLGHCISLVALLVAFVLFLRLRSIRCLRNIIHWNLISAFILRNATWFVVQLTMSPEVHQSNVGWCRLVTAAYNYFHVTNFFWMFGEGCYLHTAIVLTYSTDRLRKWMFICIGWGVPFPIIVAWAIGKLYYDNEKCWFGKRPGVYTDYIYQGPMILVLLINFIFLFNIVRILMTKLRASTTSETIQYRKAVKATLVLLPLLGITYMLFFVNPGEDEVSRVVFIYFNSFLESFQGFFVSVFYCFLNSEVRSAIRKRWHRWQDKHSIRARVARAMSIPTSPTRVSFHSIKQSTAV
Procedure, shortened: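 Using thawed CRF1R-overexpressing CHO cells at 2000 per well, compound is applied for 30 min at RT in HBSS/HEPES buffer with IBMX. Cellular cAMP content is determined via HTRF, and percent activity is calculated against 1000 nM UCN2 defined as 100%.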

human CRF2α receptor = target: T2, human CRF2α receptor (Homo sapiens, UniProt Q13324); assay: cAMP agonism at human CRF2 α receptor in TeloHEAC cells (Example 7); conditions: cAMP HTRF, TeloHEAC cells stably expressing human CRF2 α
T2 construct: expressed in transfected cells; host or cells: TeloHEAC
T2 sequence (Q13324 1-411): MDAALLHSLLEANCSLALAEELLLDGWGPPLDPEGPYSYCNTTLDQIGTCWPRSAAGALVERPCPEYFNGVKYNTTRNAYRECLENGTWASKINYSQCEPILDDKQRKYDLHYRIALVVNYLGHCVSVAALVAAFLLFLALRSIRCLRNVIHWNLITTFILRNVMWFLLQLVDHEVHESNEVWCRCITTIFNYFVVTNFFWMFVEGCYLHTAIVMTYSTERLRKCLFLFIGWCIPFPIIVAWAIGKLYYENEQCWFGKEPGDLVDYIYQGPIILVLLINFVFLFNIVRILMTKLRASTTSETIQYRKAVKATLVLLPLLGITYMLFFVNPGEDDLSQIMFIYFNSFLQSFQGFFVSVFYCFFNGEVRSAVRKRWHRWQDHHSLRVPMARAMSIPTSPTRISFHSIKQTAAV
Procedure, shortened: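 Cryopreserved cells are thawed, washed and resuspended in IBMX-containing (2 mM) HEPES-buffered HBSS with or without 0.1% HSA. Compound incubation runs 30 min at room temperature with 2000 cells per well, then cAMP is measured by time-resolved FRET. Potency is expressed as EC50, efficacy relative to urocortin 2 at 1000 nM.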

rat CRF2R α receptor = assay: cAMP agonism at rat CRF2R α receptor in A7R5 rat aortic smooth muscle cells (Example 8); conditions: cAMP HTRF, A7R5 rat aortic smooth muscle cell line, 0% HSA
Procedure, shortened: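 Potency (EC50) is the concentration reaching half-maximal activation, with responses scaled so that 1000 nM urocortin 2 equals 100%. Intracellular cAMP was quantified by homogeneous time-resolved fluorescence at 665/620 nm, 1 h after lysis-buffer reagents. Compound stimulation lasted 30 min at room temperature on 2000 IBMX-treated (2 mM) cells per well in HEPES-buffered HBSS.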

[1] = 0% HSA, read-out: EC50 [nM], 0% HSA

SMILES	EC50 (CRF1R receptor)	Emax (CRF1R receptor)	EC50 (human CRF2α receptor; [1])	EC50 (rat CRF2R α receptor)	EC50 (human CRF2α receptor; 0.1% HSA, read-out: EC50 [nM], 0.1% HSA)
CC[C@H](C)[C@H](N)C(=O)N[C@H](C(=O)N[C@@H](CC(C)C)C(=O)N[C@@H](CO)C(=O)N[C@@H](CC(C)C)C(=O)N[C@@H](CC(=O)O)C(=O)N[C@H](C(=O)N1CCC[C@H]1C(=O)N[C@H](C(=O)N[C@@H](CCCCN)C(=O)N[C@@H](CC(C)C)C(=O)N[C@@H](CCCCNC(=O)COCCOCCNC(=O)COCCOCCNC(=O)CC[C@H](NC(=O)CCCCCCCCCCCCCCCCC(=O)O)C(=O)O)C(=O)N[C@@H](CCC(N)=O)C(=O)N[C@H](C(=O)N[C@@H](CC(C)C)C(=O)N[C@@H](CC(C)C)C(=O)N[C@@H](CCC(=O)O)C(=O)N[C@@H](CCC(N)=O)C(=O)N[C@@H](C)C(=O)N[C@@H](CCCCN)C(=O)N[C@@H](CCC(N)=O)C(=O)N[C@@H](CCCCN)C(=O)NC(C)(C)C(=O)N[C@@H](CC(C)C)C(=O)N[C@@H](CCCNC(=N)N)C(=O)N[C@@H](C)C(=O)N[C@@H](CCC(N)=O)C(=O)N[C@@H](C)C(=O)N[C@@H](CCC(=O)O)C(=O)N[C@H](C(=O)N[C@@H](CC(N)=O)C(=O)N[C@H](C(=O)N[C@@H](CCCNC(=N)N)C(=O)N[C@H](C(=O)N[C@@H](CC(C)C)C(=O)N[C@@H](CCC(=O)O)C(=O)N[C@@H](CCCNC(=N)N)C(=O)N[C@H](C(N)=O)C(C)C)[C@@H](C)CC)C(C)C)[C@@H](C)O)[C@@H](C)CC)[C@@H](C)CC)C(C)C)C(C)C [compound 46] (H-IVLSLDVPIKLK([AEEA-AEEA-γGlu-C18 diacid])QILLEQAKQK[Aib]LRAQAETNVRILERV-NH2; N-terminus assumed)	> 1000 nM	5.88%	0.52 nM	8.97 nM	–
CC[C@H](C)[C@H](NC(=O)[C@H](CCC(N)=O)NC(=O)[C@H](CCCCNC(=O)COCCOCCNC(=O)COCCOCCNC(=O)CC[C@H](NC(=O)CCCCCCCCCCCCCCCCC(=O)O)C(=O)O)NC(=O)[C@@H](NC(=O)[C@H](CCCCN)NC(=O)[C@@H](NC(=O)[C@@H]1CCCN1C(=O)[C@@H](NC(=O)[C@H](CC(=O)O)NC(=O)[C@H](CC(C)C)NC(=O)[C@H](CO)NC(=O)[C@H](CC(C)C)NC(=O)[C@@H](NC(=O)[C@@H](N)Cc1ccccc1)[C@@H](C)O)C(C)C)[C@@H](C)O)[C@@H](C)CC)C(=O)N[C@@H](CC(C)C)C(=O)N[C@@H](CC(C)C)C(=O)N[C@@H](CCCCN)C(=O)N[C@@H](CCC(N)=O)C(=O)N[C@@H](CCC(N)=O)C(=O)N[C@@H](CCCCN)C(=O)N[C@@H](CCC(N)=O)C(=O)N[C@@H](CCCCN)C(=O)N[C@@H](CCCCN)C(=O)N[C@@H](CCC(=O)O)C(=O)N[C@@H](CCCNC(=N)N)C(=O)N[C@@H](CCC(N)=O)C(=O)N[C@@H](CCC(N)=O)C(=O)N[C@@H](C)C(=O)N[C@@H](CCC(=O)O)C(=O)N[C@@H](CCCCN)C(=O)N[C@@H](CC(N)=O)C(=O)N[C@@H](CCCCN)C(=O)N[C@@H](CCC(N)=O)C(=O)N[C@@H](CC(C)C)C(=O)N[C@@H](CC(C)C)C(=O)N[C@@H](CCC(=O)O)C(=O)N[C@@H](CCCNC(=N)N)C(=O)N[C@H](C(N)=O)C(C)C [compound 52] (H-FTLSLDVPTKIK([AEEA-AEEA-γGlu-C18 diacid])QILLKQQKQKKERQQAEKNKQLLERV-NH2; N-terminus assumed)	> 1000 nM	5.3%	0.7 nM	0.76 nM	45.8 nM
